Laboratory results from patent US6403575B1, “3-Pyridyl enantiomers and their use as analgesics” (Abbott Laboratories, priority 1996, dated 2002).
Counter-ions that a name gives are not always drawn.

Experiments:
[1] = tested on: beagle dogs; type: in vivo; details: anesthetized dog, i.v. bolus 10 nmol/kg
Protocol: Male beagle dogs were anesthetized with pentobarbital (35 mg/kg, i.v.) followed by constant i.v. infusion of pentobarbital (5 mg/kg/h). The animals were ventilated with room air by means of a mechanical respiration pump. Blood pressure was measured using a dual tip micromanometer catheter (Millar, Model SPC-770, 7F) inserted into the heart left ventricle via the carotid artery. Compounds were injected into the right femoral vein via catheter. Hemodynamic variables were computed using XYZ Real Time Spreadsheet software on a signal processing workstation (Modular Instruments, Inc.). Sixty minutes were allowed following surgery to achieve a steady-state baseline for the measured variables. Test compounds were administered by i.v. bolus (10 nmol/kg) and compared for their relative ability to elicit changes in blood pressure and heart rate over a five minute data collection period.

[2] = target: T1, neuronal nicotinic acetylcholine receptors (Rattus norvegicus, UniProt P09483+P12390); assay: [3H]-cytisine binding to neuronal nicotinic acetylcholine receptors, whole rat brain membranes; details: [3H]-cytisine 1.25 nM, whole rat brain membranes; read-out: [3H] CYT Ki
T1 construct: crude synaptic membrane preparations from whole rat brain; from tissue; host or cells: whole rat brain, crude synaptic membranes
Protocol: Protocol for Determination of Nicotinic Acetylcholine Channel Receptor Binding Potencies of Ligands
Binding of [^3H]-cytisine ([^3H]-CYT) to neuronal nicotinic acetylcholine receptors was accomplished using crude synaptic membrane preparations from whole rat brain (Pabreza et al., Molecular Pharmacol., 1990, 39:9). Washed membranes were stored at −80° C. prior to use. Frozen aliquots were slowly thawed and resuspended in 20 volumes of buffer (containing: 120 mM NaCl, 5 mM KCl, 2 mM MgCl2, 2 mM CaCl2 and 50 mM Tris-Cl, pH 7.4 @4° C.). After centrifuging at 20,000×g for 15 minutes, the pellets were resuspended in 30 volumes of buffer. Homogenate (containing 125-150 μg protein) was added to triplicate tubes containing concentrations of test compound and [^3H]-CYT (1.25 nM) in a final volume of 500 μL. Samples were incubated for 60 minutes at 4° C., then rapidly filtered through Whatman GF/B filters presoaked in 0.5% polyethyleneimine using 3×4 mL of ice-cold buffer. The filters are counted in 4 mL of Ecolume® (ICN). Nonspecific binding was determined in the presence of 10 μM (−)-nicotine and values were expressed as a percentage of total binding.

[3] = target: T2, peripheral ganglionic receptors (Homo sapiens, UniProt P30926+P32297); assay: 86Rb+ flux activation in IMR-32 human neuroblastoma cells; type: cell-based; details: 1 μM compound, % of maximum response to (S)-nicotine
T2 construct: Cells of the IMR-32 human neuroblastoma clonal cell line (ATCC, Rockville, Md.); host or cells: IMR-32 human neuroblastoma cells
Protocol: Protocol for the Determination of Ability of Nicotinic Acetylcholine Receptor Ligands to Activate Peripheral Ganglionic Receptors
Cells of the IMR-32 human neuroblastoma clonal cell line (ATCC, Rockville, Md.) were maintained in a log phase of growth according to established procedures. Experimental cells were seeded at a density of 500,000 cells/mL into a 24-well tissue culture dish. Plated cells were allowed to proliferate for at least 48 hours before loading with 2 μCi/mL of ^86Rb^+ (35 Ci/mmol) overnight at 37° C. The ^86Rb^+ efflux assays were performed according to previously published protocols (Lukas, R. J., J. Pharmacol. Exp. Ther., 265: 294-302, 1993) except serum-free Dulbecco's Modified Eagle's Medium was used during the ^86Rb^+ loading, rinsing, and agonist-induced efflux steps. Data reflect the activation of ^86Rb^+ flux at a concentration of 1 μM, and reflect the response as a percentage of the maximum response elicited by (S)-nicotine.

[4] = tested on: mice; assay: Mouse Hot Plate Paradigm; type: in vivo; details: 30 minutes prior to testing, 55° C.; for minimal effective dose: ip, 0.5 h, i.p., read-out: MED Hot plate model (μmol/kg, i.p.)
[5] = tested on: rats; assay: Chung Model of Neuropathic Pain; type: in vivo; parameters: key: NS = no significant effect observed relative to saline controls at the doses tested; details: rat, 50% threshold to VonFrey hairs
[6] = tested on: mice; type: in vivo; details: mouse, i.p.
Protocol: Motor coordination was assessed using an accelerating rotarod apparatus (Omnitech Electronics, Inc., Columbus, Ohio). Locomotor activity was monitored under dim light in a 41×41 cm. open field using a photobeam activity system (San Diego Instruments, San Diego, Calif.). The mouse was placed on a 3.5 cm diameter rod which increased in speed from 0 to 40 rpm over 120 seconds. The time required for the mouse to fall from the rod was recorded with a maximum score of 120 seconds. Twenty-five min after receiving an i.p. injection, the mice were placed in the open field for 5 min. After removal from the open field (i.e., 30 min after injection), they were immediately tested on the rotarod. Body temperature was assessed using a probe inserted 3 cm into the rectum approximately 35 min after injection. (YSI Tele-Thermometer, Yellow Springs Instrument Co., Inc., Yellow Springs, Ohio). Diazepam (10.5 μmol/kg, i.p.) was used as a positive control.

[7] = target: neuromuscular junction nicotinic acetylcholine receptor (Tetronarce californica, UniProt P02710+P02714+P02718); assay: biochemical; type: binding, Torpedo Californica; details: read-out: Ki (nM) α-bungarotoxin
[8] = tested on: rat spinal cord cultures; assay: Neuroprotection against substance P or glutamate toxicity in primary spinal cord cultures (LDH release); type: cell-based
[9] = tested on: rats; assay: Paw Thermal Stimulator (Hotbox) Model; type: in vivo; details: rat, i.p., tested 0.62 to 6.2 μmol/kg
Source text: For assessing nociceptive responses to an acute thermal stimulus, a commercially available paw thermal stimulator was utilized (Anesthesiology Research Laboratory, Department of Anesthesiology, University of California at San Diego, La Jolla, Calif.). This device has been previously described (Dirig, D. M. and Yaksh, T. L., Pain, 62: 321-328, 1995) and is based on the initial work of Hargreaves et al. (Pain, 32: 77-88, 1988). Rats were placed in Plexiglas cubicles that were located on a glass surface of the apparatus. The surface of the glass was maintained at 30° C. A thermal stimulus was applied to the bottom of the rear foot of the rat via a movable focused projection bulb. The stimulus current was maintained at 4.8 Amps. The latency until the animal moved its foot from the stimulus was recorded automatically by use of photodiode motion sensors. In the current studies, a 20 second cut-off was employed to limit possible tissue damage following exposure to the stimulus.
All studies began with a 20 min acclimation period. Following the acclimation period, a baseline measure was determined for each animal. Following determination of baseline, treatments were administered and measures were taken at various time points following treatment (e.g., 15, 30, and 45 min). For clarity, data were collapsed over time for statistical analysis (unless otherwise noted).
Stock solutions of compounds were prepared in absolute ethanol at a concentration of 62 μmol/ml. From this, solutions were made with 10% ethanol, and dosed by injection i.p. Compounds were tested in the dose range of from 0.62 to 6.2 μmol/kg.
For measurements, the following protocol was utilized. Six animals were used in each run. For any given measure (e.g., time point), one foot of each of the 6 animals was tested and then the process was repeated for the opposite foot. Mean values for the response were then computed based on the two scores.

[10] = tested on: rats; assay: Carrageenan paw edema model; type: in vivo; details: rat
[11] = tested on: rats; assay: Chung Model of Neuropathic Pain following repeated dosing; type: in vivo; details: rat, in vivo, ip
Protocol: Animals were surgically prepared as described above for the Chung model. For assessment of each test compound, two treatment groups (6 animals each) were established. One group was injected (i.p.) with test compound twice daily for 5 days, and the other group was injected on the same schedule with saline. Responses to von Frey hairs were assessed as described above both before, and 15 minutes after, injection on the first 2 days and also on the 5th day. The saline-treatment group was given saline for the first 4 days and on the morning of the 5th day, but received a challenge of the test compound in the afternoon of the fifth day.

T2 sequence (P32297 32-505): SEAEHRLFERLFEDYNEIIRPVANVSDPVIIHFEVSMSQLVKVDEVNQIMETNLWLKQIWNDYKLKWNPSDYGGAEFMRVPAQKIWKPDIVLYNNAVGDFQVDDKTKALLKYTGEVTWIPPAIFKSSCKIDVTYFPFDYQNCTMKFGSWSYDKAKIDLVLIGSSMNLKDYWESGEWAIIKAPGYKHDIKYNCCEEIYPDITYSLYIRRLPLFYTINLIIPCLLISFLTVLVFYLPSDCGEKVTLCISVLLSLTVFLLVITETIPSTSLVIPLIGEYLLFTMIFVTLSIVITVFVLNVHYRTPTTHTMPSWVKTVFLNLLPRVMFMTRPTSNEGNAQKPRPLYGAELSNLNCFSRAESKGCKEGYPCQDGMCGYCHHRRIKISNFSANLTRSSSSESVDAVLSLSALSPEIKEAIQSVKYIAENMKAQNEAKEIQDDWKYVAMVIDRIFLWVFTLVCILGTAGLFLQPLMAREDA
T2 sequence (P30926 22-498): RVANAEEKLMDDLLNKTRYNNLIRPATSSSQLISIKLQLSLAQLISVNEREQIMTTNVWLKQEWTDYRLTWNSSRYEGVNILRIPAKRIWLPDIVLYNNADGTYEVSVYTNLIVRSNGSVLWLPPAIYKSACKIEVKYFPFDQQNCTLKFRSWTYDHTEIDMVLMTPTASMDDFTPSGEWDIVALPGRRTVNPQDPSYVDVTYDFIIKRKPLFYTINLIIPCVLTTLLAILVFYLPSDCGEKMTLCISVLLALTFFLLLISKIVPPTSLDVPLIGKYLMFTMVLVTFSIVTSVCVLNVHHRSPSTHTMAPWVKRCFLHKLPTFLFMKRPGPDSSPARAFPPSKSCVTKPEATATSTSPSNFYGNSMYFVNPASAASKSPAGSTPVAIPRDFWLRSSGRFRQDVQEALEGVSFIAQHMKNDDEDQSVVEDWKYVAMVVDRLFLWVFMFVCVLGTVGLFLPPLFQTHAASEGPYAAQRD
T1 sequence (P09483 31-630): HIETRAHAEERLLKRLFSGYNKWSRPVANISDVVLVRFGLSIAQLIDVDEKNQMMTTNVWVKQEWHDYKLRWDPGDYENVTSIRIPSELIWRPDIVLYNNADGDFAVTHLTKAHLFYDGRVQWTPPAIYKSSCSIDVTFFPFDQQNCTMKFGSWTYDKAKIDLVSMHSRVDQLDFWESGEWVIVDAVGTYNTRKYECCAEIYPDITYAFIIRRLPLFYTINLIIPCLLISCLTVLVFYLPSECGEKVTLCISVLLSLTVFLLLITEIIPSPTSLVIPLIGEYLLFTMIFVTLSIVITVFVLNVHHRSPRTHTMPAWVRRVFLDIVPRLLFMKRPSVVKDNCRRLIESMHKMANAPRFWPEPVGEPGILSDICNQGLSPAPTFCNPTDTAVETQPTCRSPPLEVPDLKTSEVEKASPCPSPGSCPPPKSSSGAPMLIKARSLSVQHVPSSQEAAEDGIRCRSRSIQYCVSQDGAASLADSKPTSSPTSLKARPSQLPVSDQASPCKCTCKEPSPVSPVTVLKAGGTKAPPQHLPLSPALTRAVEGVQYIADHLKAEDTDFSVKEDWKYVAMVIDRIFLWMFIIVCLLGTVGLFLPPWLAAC
T1 sequence (P12390 25-500): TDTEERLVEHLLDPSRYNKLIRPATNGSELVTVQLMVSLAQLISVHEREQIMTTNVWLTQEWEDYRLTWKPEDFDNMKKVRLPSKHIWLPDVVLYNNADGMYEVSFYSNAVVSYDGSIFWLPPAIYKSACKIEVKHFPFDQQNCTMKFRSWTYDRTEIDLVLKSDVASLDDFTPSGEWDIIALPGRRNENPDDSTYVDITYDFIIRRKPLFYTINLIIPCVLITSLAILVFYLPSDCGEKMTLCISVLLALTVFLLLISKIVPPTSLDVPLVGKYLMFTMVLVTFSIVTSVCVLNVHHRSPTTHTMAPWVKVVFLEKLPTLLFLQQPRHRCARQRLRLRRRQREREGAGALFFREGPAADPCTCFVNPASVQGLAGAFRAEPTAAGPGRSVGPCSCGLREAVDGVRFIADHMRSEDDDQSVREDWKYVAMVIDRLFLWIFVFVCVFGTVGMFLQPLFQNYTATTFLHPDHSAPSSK
Chain of neuromuscular junction nicotinic acetylcholine receptor (P02714 18-506): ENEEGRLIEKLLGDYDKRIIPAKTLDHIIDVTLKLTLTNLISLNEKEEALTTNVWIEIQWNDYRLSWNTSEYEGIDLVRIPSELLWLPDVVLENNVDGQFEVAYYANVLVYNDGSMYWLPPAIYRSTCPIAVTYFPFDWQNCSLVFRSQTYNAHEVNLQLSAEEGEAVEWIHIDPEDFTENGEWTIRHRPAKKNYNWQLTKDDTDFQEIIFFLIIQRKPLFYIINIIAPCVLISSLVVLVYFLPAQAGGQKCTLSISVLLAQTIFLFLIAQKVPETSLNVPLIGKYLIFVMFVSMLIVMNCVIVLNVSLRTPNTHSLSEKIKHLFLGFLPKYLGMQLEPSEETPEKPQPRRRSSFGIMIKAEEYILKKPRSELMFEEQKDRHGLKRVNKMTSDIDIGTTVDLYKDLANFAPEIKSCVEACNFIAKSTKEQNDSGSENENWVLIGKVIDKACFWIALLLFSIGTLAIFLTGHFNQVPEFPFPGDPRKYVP
Chain of neuromuscular junction nicotinic acetylcholine receptor (P02710 25-461): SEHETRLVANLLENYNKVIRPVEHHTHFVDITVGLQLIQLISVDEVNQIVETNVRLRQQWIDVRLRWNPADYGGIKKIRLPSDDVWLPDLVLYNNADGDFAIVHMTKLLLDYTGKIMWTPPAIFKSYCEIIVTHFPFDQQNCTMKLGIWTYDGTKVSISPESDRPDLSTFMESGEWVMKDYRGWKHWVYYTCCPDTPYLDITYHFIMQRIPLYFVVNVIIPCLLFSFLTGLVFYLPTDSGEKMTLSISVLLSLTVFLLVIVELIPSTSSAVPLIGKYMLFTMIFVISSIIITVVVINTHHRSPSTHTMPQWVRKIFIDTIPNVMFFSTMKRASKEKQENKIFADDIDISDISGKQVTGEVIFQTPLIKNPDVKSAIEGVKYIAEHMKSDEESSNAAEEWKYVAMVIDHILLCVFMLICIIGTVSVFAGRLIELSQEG
Chain of neuromuscular junction nicotinic acetylcholine receptor (P02712 25-493, further chain): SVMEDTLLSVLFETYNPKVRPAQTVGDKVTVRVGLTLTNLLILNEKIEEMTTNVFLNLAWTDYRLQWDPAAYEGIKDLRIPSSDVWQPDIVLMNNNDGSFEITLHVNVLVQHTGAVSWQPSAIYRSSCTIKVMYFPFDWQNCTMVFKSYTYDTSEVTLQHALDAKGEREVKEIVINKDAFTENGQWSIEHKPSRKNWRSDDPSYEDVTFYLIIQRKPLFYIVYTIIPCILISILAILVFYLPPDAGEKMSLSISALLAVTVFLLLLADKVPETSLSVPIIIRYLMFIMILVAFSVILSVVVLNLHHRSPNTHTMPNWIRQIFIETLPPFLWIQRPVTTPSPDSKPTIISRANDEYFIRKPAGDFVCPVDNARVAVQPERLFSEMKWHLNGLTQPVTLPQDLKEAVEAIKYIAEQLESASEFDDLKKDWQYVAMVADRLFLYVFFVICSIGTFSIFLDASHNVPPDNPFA
Chain of neuromuscular junction nicotinic acetylcholine receptor (P02718 22-522): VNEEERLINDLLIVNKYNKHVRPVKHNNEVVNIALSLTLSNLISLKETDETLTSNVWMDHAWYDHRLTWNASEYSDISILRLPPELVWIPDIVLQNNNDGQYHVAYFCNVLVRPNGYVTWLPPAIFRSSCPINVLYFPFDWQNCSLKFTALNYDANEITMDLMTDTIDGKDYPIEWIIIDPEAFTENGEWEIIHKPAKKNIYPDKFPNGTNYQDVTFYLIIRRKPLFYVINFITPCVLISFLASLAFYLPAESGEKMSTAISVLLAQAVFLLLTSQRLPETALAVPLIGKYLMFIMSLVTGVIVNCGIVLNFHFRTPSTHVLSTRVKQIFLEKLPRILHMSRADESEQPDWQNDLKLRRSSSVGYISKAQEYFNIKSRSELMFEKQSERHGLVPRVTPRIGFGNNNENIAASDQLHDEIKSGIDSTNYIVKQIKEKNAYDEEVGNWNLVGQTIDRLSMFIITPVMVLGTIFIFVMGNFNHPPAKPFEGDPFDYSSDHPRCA

| SMILES | Ki [2] | IMR-32 % maximal nicotine response at 1 μM Cmpd conc'n [3] | minimal effective dose [4] | MED Chung model (μmol/kg, i.p.) [5] | analgesic dose [9] | other results |
| --- | --- | --- | --- | --- | --- | --- |
| Clc1ccc(OC[C@H]2CCN2)cn1 [Example 1, 5-((2R)-Azetidinylmethoxy)-2-chloropyridine] | – | – | – | – | – | Increase in Diastolic Blood Pressure (mm Hg) [1]: 23.2 ± 4.6 mm Hg; Increase in Heart Rate (beats/min) [1]: 7.8 ± 2.9 beats/min; blood pressure increase as fraction of that seen with Example 19 [1]: ⅓; heart rate increase as fraction of that seen with Example 19 [1]: ⅓ |
| Fc1ccc(OCC2CCN2)cn1 [Example 8, 5-(2R)-Azetidinylmethyloxy)-2-fluoropyridine dibenzoate] | 0.06 nM | 46% | 1.9 µmol/kg | 0.62 µmol/kg | – | dose at which a rotarod effect was reached [6]: 19 |
| Fc1ccc(OC[C@@H]2CCN2)cn1 [Example 9, 5-(2S)-Azetidinylmethyloxy)-2-fluoropyridine dibenzoate] | 0.16 nM | 103% | 0.62 µmol/kg | – | – | dose showing rotarod impairments ([6]; in 2 of 3 experiments): 0.62 µmol/kg |
| Fc1cncc(OC[C@@H]2CCN2)c1 [Example 10, 5-((2S)-Azetidinylmethyloxy)-3-fluoropyridine dihydrochloride] | 0.09 nM | 28% | 6.2 µmol/kg | 0.62 µmol/kg | – | – |
| Clc1cc(OC[C@@H]2CCN2)cnc1Cl [Example 15, 5-((2S)-azetidinylmethoxy)-2,3-dichloropyridine hydrochloride] | 0.02 nM | 117% | 1.9 µmol/kg | NS | – | – |
| Clc1cc(OC[C@H]2CCN2)cnc1Cl [Example 16, 5-((2R)-azetidinylmethoxy)-2,3-dichloropyridine hydrochloride] | 0.06 nM | 85% | 6.2 µmol/kg | 0.19 µmol/kg | – | – |
| Clc1ncc(OC[C@@H]2CCN2)cc1Br [Example 17, 5-((2S)-azetidinylmethoxy)-3-bromo-2-chloropyridine hydrochloride] | 0.02 nM | 120% | 1.9 µmol/kg | 0.19 µmol/kg | – | – |
| Cl.Cl.Clc1ccc(OC[C@@H]2CCN2)cn1 [Example 19, 5-((2S)-Azetidinylmethyloxy)-2-chloropyridine dihydrochloride] | 0.04 nM | 173% | – | 0.3 µmol/kg | – | Ki [7]: 1300 nM; less potent as a neuroprotectant in spinal cord ([8]; relative to compound of Example 4): 10 fold; MED Hot plate model (μmol/kg, i.p.) [4]: 0.62 µmol/kg; Increase in Diastolic Blood Pressure (mm Hg) [1]: 67.3 ± 3.2 mm Hg; Increase in Heart Rate (beats/min) [1]: 26.0 ± 7.8 beats/min |
| C[C@H](NC(=O)OC(C)(C)C)C(=O)N1CC[C@@H]1COc1ccc(F)nc1 [Example 54] | – | – | – | – | >6.2 µmol/kg | – |
| O=C1CCC(=O)N1CN1CC[C@@H]1COc1ccc(F)nc1 [Example 71] | – | – | – | – | 0.62 µmol/kg | – |
| O=C1c2ccccc2C(=O)N1CN1CC[C@@H]1COc1ccc(F)nc1 [Example 72] | – | – | – | – | 0.62 µmol/kg | – |
| CC1(C)CC(=O)C=C(N2CC[C@@H]2COc2ccc(F)nc2)C1 [Example 75] | – | – | – | – | 6.2 µmol/kg | – |
| O=C(Oc1ccccc1)N1CC[C@@H]1COc1ccc(F)nc1 [Example 79] | – | – | – | – | 0.62 µmol/kg | – |
| O=C(Oc1ccc([N+](=O)[O-])cc1)N1CC[C@@H]1COc1ccc(F)nc1 [Example 80] | – | – | – | – | 0.62 µmol/kg | – |
| COc1ccc(OC(=O)N2CC[C@@H]2COc2ccc(F)nc2)cc1 [Example 81] | – | – | – | – | 0.62 µmol/kg | – |
| O=C(N1CCCC1)N1CC[C@@H]1COc1ccc(F)nc1 [Example 92] | – | – | – | – | >6.2 µmol/kg | – |
| O=C(CCSSCCC(=O)N1CC[C@@H]1COc1ccc(F)nc1)N1CC[C@@H]1COc1ccc(F)nc1 [Example 95] | – | – | – | – | >6.2 µmol/kg | – |
| Cl.Fc1ncccc1OC[C@@H]1CCN1 [Example 122, 2-Fluoro-3-(2(S)-azetidinylmethoxy)pyridine hydrochloride] | – | – | – | 1.9 µmol/kg | – | – |
| CNC1(C)C2CCC(C2)C1(C)C (stereo not drawn) [mecamylamine, reference compound] | – | – | – | – | – | block of the neuroprotective effect by nicotinic antagonists ([8]; mecamylamine 10 μM, MLA 10 nM, α-BTX 1 nM): blocked; prevention of the paw edema effect of Example 4 by nicotinic antagonist [10]: prevented; prevention of the paw edema effect of Example 4 by nicotinic antagonist ([10]; listed as mecaamylamine): prevents this effect |
| CN1CC[C@]23c4c5ccc(O)c4O[C@H]2[C@@H](O)C=C[C@H]3[C@H]1C5 [morphine, reference compound] | – | – | – | – | – | anti-allodynic effect following repeated dosing [11]: significantly reduced |
